Assay results reported in patent publication US7192746B2, “α-Isomaltosyltransferase, process for producing the same and use thereof” (Kabushiki Kaisha Hayashibara Seibutsu Kagaku Kenkyujo, priority 2000, dated 2007).

Legend:
amylopsin = biological target: T1, amylopsin (Homo sapiens, UniProt P04746)
T1 sequence (P04746 16-511): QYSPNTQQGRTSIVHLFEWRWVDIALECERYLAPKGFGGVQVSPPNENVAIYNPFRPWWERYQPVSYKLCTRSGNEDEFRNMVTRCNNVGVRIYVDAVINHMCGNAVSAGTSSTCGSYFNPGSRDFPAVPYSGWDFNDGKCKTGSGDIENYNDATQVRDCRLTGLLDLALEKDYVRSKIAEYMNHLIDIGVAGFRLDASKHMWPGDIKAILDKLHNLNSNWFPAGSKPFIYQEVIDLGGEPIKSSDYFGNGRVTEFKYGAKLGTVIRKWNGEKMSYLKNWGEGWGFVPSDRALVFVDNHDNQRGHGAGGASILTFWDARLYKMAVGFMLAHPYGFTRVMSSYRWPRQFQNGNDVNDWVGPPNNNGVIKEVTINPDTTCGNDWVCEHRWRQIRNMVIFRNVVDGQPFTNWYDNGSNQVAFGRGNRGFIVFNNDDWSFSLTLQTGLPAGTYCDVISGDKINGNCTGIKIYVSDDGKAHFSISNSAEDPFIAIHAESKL

[1] = Reducing power on the Somogyi-Nelson's method; assay type: physicochemical
[2] = system: internal content of rat cecum; assay: Fermentation test; assay type: in vitro ADME
Description: The internal content of rat cecum was collected by anesthetizing a Wister male rat with ether, allowing the rat to die, collecting the internal content under anaerobic conditions, and suspending the resultant with 4-fold volumes of a 0.1 M aqueous solution of sodium bicarbonate. Cyclotetrasaccharide was added in an amount of about 7% by weight to the weight of the internal contents of rat cecum, and the contents of cyclotetrasaccharide, which still remained just after and 12 hours after the addition of the internal contents, were quantified on gas chromatography.

[3] = system: α-isomaltosyl-transferring enzyme from Arthrobacter ramosus S1; assay: Specificity to transferring acceptor; assay type: biochemical; settings: panose as saccharide donor, 10 units/g substrate, 3.2% (w/v), 30° C., pH 6.0, 24 hours
Method in brief: (§1)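 Scoring is presence or absence of a transfer product, detected by HPLC for tri- or larger saccharides and by GLC for smaller ones. Reactions: 3.2% (w/v) saccharide with panose as donor in equal amount, 10 units/g substrate of purified or partially purified enzyme, pH 6.0, 30 °C, 24 h.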

[4] = system: α-isomaltosyl-transferring enzyme from Bacillus globisporus N75; assay: Specificity to transferring acceptor; assay type: biochemical; settings: panose as saccharide donor, 10 units/g substrate, 3.2% (w/v), 30° C., pH 6.0, 24 hours
Method in brief: as §1

[5] = system: α-isomaltosyl-transferring enzyme from Bacillus globisporus C9; assay: Specificity to transferring acceptor; assay type: biochemical; settings: panose as saccharide donor, 10 units/g substrate, 3.2% (w/v), 30° C., pH 6.0, 24 hours
Method in brief: as §1

[6] = system: α-isomaltosyl-transferring enzyme from Arthrobacter globiformis A19; assay: Specificity to transferring acceptor; assay type: biochemical; settings: partially purified enzyme, panose as saccharide donor, 10 units/g substrate, 3.2% (w/v), 30° C., pH 6.0, 24 hours
Method in brief: as §1

[7] = system: α-isomaltosyl-transferring enzyme from Bacillus globisporus C11; assay: Specificity to transferring acceptor; assay type: biochemical; settings: panose as saccharide donor, 10 units/g substrate, 3.2% (w/v), 30° C., pH 6.0, 24 hours
Method in brief: as §1

Row | Structure (SMILES) | Decomposition percentage by digestive enzyme (amylopsin) [%] | Reducing power [1] | Cyclotetrasaccharide remained without being fermented ([2]; 12 hours) [%] | Content of cyclotetrasaccharide remaining ([2]; 12 hours after the addition) | Content of cyclotetrasaccharide remaining ([2]; just after the addition) | Product of transferring reaction, Enzyme of Strain S1 [3] | Product of transferring reaction, Enzyme of Strain N75 [4] | Product of transferring reaction, Enzyme of Strain C9 [5] | Product of transferring reaction, Enzyme of Stain A19 [6] | Product of transferring reaction, Enzyme of Strain C11 [7]
1 | OCC1OC2OCC3O[C@H](O[C@H]4C(O)C(CO)OC(OCC5O[C@H](O[C@@H](C1O)C2O)C(O)C(O)[C@@H]5O)C4O)C(O)C(O)[C@@H]3O (stereo partly drawn) [Cyclotetrasaccharide, cyclo{→6)-α-D-glucopyranosyl-(1→3)-α-D-glucopyranosyl-(1→6)-α-D-glucopyranosyl-(1→3)-α-D-glucopyranosyl-(1→}] | 0.0 | below a detectable level | 93 | 63.0 mg per one gram of the internal contents of rat cecum | 68.0 mg per one gram of the internal contents of rat cecum | – | – | – | – | –
2 | OC[C@@H](O)[C@@H](O[C@H]1O[C@H](CO)[C@@H](O)[C@H](O)[C@H]1O)[C@H](O)[C@@H](O)CO [Maltitol, maltitol] | – | – | – | – | – | + (a saccharide-transferred product was formed in an amount of over one percent but below 10% to the total sugars) | + (a saccharide-transferred product was formed in an amount of over one percent but below 10% to the total sugars) | + (a saccharide-transferred product was formed in an amount of over one percent but below 10% to the total sugars) | + (a saccharide-transferred product was formed in an amount of over one percent but below 10% to the total sugars) | + (a saccharide-transferred product was formed in an amount of over one percent but below 10% to the total sugars)
